One experiment has as its system Male Wistar rats. The experiment can be described thus: Test Example 2A: excretion action of urine sugar in rat. To be noted: urine collected 24 hours. It counts as in vivo. The procedure: Male Wistar rats aged 5 weeks (purchased from Charles River Japan, Inc.) were acclimatized in metabolic cages for one week, for use at this experiment. The test compounds suspended in olive oil were dosed at 5 ml per 1 kg rat body weight.
After the rats were starved for 4 hours, the test compounds were orally given to the rats at 11 am. Immediately after dosing until 24 hours later, urine was collected. The volume of urine was measured. Then, urine sugar concentration was assayed by glucose oxidase method, to calculate the glucose excretion into urine per individual per day.

In experiment [1] the test system is glucose-loaded rats (Wistar rats). The experiment can be described thus: Example I: blood glucose time course after oral glucose loading in rats. It counts as in vivo, rat. To be noted: glucose 1 g/kg p.o., FIG. 2. Here is the method: Wistar rats (age of 7 weeks; male) were divided into groups with matched body weights. After 17-hour starvation, glucose was orally given at 1 g/kg to the animals. Immediately after the administration, the inhibitor A of renal glucose reabsorption or the inhibitor B of renal glucose reabsorption (A at 30 mg/kg or 60 mg/kg; B at 30 mg/kg or 80 mg/kg) or glibenclamide (1 mg/kg or 2 mg/kg) or nateglinide (50 mg/kg or 80 mg/kg) was orally given. Additionally, a group on the combined use of both of an inhibitor of renal glucose reabsorption and a hypoglycemic agent was also prepared. A vehicle was orally given to a control group after glucose administration.
Blood glucose was measured in a time course.

The mark [2] stands for this setting: nateglinide 50 mg/kg and/or inhibitor B 30 mg/kg p.o., vs vehicle.

Here are results for eight molecules from patent US7956041B2, “Prophylactic and therapeutic agent of diabetes mellitus” (Ajinomoto Co., Inc., priority 2002, dated 2011).

`CCc1ccc(Cc2c(O[C@@H]3O[C@H](COC(=O)OC)[C@@H](O)[C@H](O)[C@H]3O)nn(-c3ccccc3)c2C(F)(F)F)cc1` [Production Example 8-A, 4′-[(4′-ethylphenyl)methyl]-1′-phenyl-5′-trifluoromethyl-1H-pyrazole-3′-o-(6-carbomethoxy)-β-D-glucopyranoside] had an Excreted urine sugar in the experiment with Male Wistar rats (Dose 100 mg/kg p.o.) of 4.1 mg.

With `COC(=O)OC[C@H]1O[C@@H](Oc2nn(C(C)C)c(C)c2Cc2ccc(OC)c(F)c2)[C@H](O)[C@@H](O)[C@@H]1O` [Production Example 10-A, 4′-[(3′-fluoro-4′-methoxyphenyl)methyl]-1′-isopropyl-5′-methyl-1H-pyrazole-3′-o-(6-carbomethoxy)-β-D-glucopyranoside], the Excreted urine sugar in the experiment on Male Wistar rats (Dose 100 mg/kg p.o.) came out at 734 mg.

In the experiment on Male Wistar rats (Dose 100 mg/kg p.o.), `COC(=O)OC[C@H]1O[C@@H](Oc2nn(C(C)C)c(C)c2Cc2ccc(C)c(F)c2)[C@H](O)[C@@H](O)[C@@H]1O` [Production Example 14-A, 4′-[(3′-fluoro-4′-methylphenyl)methyl]-1′-isopropyl-5′-methyl-1H-pyrazole-3′-o-(6-carbomethoxy)-β-D-glucopyranoside] showed an Excreted urine sugar of 918 mg.

On to `CC(C)[C@H]1CC[C@H](C(=O)N[C@H](Cc2ccccc2)C(=O)O)CC1` [nateglinide], for which, in experiment [1] (setting [2]), the “Blood glucose 30 minutes after glucose loading” value is “more highly suppressed hyperglycemia immediately after glucose loading (30 minutes and 60 minutes)”; the “Blood glucose 60 minutes after glucose loading” value is “more highly suppressed hyperglycemia immediately after glucose loading (30 minutes and 60 minutes)”. Moreover, the “Blood glucose 120 minutes after glucose loading and thereafter” value in experiment [1] (nateglinide 50 mg/kg p.o., vs vehicle) is “did not lower the blood glucose level 120 minutes after glucose loading and thereafter”. For the same molecule, in experiment [1] (nateglinide 80 mg/kg, inhibitor B 80 mg/kg), the “Pattern of glycemic suppression at increased dose” value was “the pattern of glycemic suppression did not change even by the elevation of the dose”.

Take `CCc1ccc(Cc2c(O[C@@H]3O[C@H](COC(=O)OC)[C@@H](O)[C@H](O)[C@H]3O)nn(C(C)C)c2C)cc1` [Production Example 16-A, 4′-[(4-ethylphenyl)methyl]-1′-isopropyl-5′-methyl-1H-pyrazole-3′-o-(6-carbomethoxy)-β-D-glucopyranoside]: the Excreted urine sugar stood at 28 mg in the experiment on Male Wistar rats (Dose 3 mg/kg p.o.), 263 mg with Male Wistar rats (Dose 10 mg/kg p.o.), 294 mg with Male Wistar rats (Dose 30 mg/kg p.o.) and 598 mg in the experiment on Male Wistar rats (Dose 100 mg/kg p.o.).

`Cc1[nH]nc(O[C@@H]2O[C@H](CO)[C@@H](O)[C@H](O)[C@H]2O)c1Cc1ccc(OC(C)C)cc1` [Reference Production Example 1, 4-[(4-isopropoxyphenyl)methyl]-5-methyl-1H-pyrazole-3-o-β-D-glucopyranoside, reference compound] showed an Excreted urine sugar in the experiment with Male Wistar rats (Dose 100 mg/kg p.o.) of 14 mg.

With `CCc1ccc(Cc2c(O[C@@H]3O[C@H](COC(=O)OC)[C@@H](O)[C@H](O)[C@H]3O)nn(Cc3ccc(OC)cc3)c2C(F)(F)F)cc1` [Production Example 6-A, 4′-[(4′-ethylphenyl)methyl]-1′-[(4′-methoxyphenyl)methyl]-5′-trifluoromethyl-1H-pyrazole-3′-o-(6-carbomethoxy)-β-D-glucopyranoside], the Excreted urine sugar with Male Wistar rats (Dose 100 mg/kg p.o.) stood at 59 mg.

Molecule `CCc1ccc(Cc2c(O[C@@H]3O[C@H](COC(=O)OC)[C@@H](O)[C@H](O)[C@H]3O)nn(Cc3ccccc3)c2C(F)(F)F)cc1` [Production Example 4-A, 4′-[(4′-ethylphenyl)methyl]-1′-benzyl-5′-trifluoromethyl-1H-pyrazole-3′-o-(6-carbomethoxy)-β-D-glucopyranoside] came in with an Excreted urine sugar in the experiment on Male Wistar rats (Dose 100 mg/kg p.o.) of 27 mg.
